The text below walks through data of PMC8558239, “Interaction Between Florfenicol and Doxycycline Involving Cytochrome P450 3A in Goats (Capra hricus)” (Frontiers in Veterinary Science, 2021).

Like-named read-outs stand apart in the source and are kept apart here.

Data set [1] has as its system CYP3A24. The data set is described as follows: Incubation of recombinant CYP3A24 with FF and DOX (FFA production). The data set is classed as in vitro ADME, goat. As to conditions: FF incubated with CYP3A24.
Data set [2] relates to CYP3A24 R372A. As to conditions: mutant R372A.
Data set [3] relates to CYP3A24 gene. The experiment in a line: Gene expression of CYP3A24 in goat liver (qPCR). In kind it is in vivo, goats. As for the experimental part:
Throughout the experiment, all goats had ad libitum access to feed and water without antibiotics. The goats were divided into three groups, namely the control group (6 animals), the single group (24 animals), and the combined group (24 animals). The control group was fed without medication. In the single group, FF (Zhonglongshenli Animal Pharmaceutical Co., Ltd. Hefei, China, specification: 10 mL: 1 g) was injected into the neck muscles at 48 h intervals, twice in total. In the combined group, FF was injected into the neck muscles at 48 h intervals, twice in total, and DOX-hyclate (Zhonglongshenli Animal Pharmaceutical Co., Ltd. Hefei, China, specification: 10 mL: 1 g) was injected into the neck muscles, once a day for 3 days. The volume of the treatment solution was calculated individually for each goat to provide a dose equivalent to 20 mg FF/kg bw and 10 mg DOX/kg bw. […]
Real-time quantitative polymerase chain reaction (qPCR) was used to detect the expression of CYP3A24 in treated goats. […] The concentration and purity of RNA was detected by Q3000 (Thermo, USA). […] The data were analyzed by the 2^ΔΔCt method.
A general note: Real-time PCR tracks product formation cycle by cycle.

The test system of data set [4] is CYP3A24 R440A. As to conditions: mutant R440A.
Data set [5] is described as follows: Tissue residue depletion in goats (LC-MS/MS). As to conditions: both sexes, Boaer-cross, intramuscular, i.m., mean ± SD, 4 goats; for concentration at 0.5 days: 0.5 days after last dose; for concentration at 1 day: 1 day after last dose. In kind it is in vivo, goats (Capra hircus). As for the experimental part: In this study, a total of 54 Boaer-cross goats (Capra hircus) of both sexes, about 8 months old, were selected, weighing 28–36 kg. During the 1st week of acclimatization, all animals were raised in the usual way, with free access to feed and water. The experiment was conducted in accordance with the Guidelines for the Care and Use of Laboratory Animals issued by HZAU and approved by the Ethics Committee of Veterinary College of HZAU.
Throughout the experiment, all goats had ad libitum access to feed and water without antibiotics. The goats were divided into three groups, namely the control group (6 animals), the single group (24 animals), and the combined group (24 animals). The control group was fed without medication. In the single group, FF (Zhonglongshenli Animal Pharmaceutical Co., Ltd. Hefei, China, specification: 10 mL: 1 g) was injected into the neck muscles at 48 h intervals, twice in total. In the combined group, FF was injected into the neck muscles at 48 h intervals, twice in total, and DOX-hyclate (Zhonglongshenli Animal Pharmaceutical Co., Ltd. Hefei, China, specification: 10 mL: 1 g) was injected into the neck muscles, once a day for 3 days. The volume of the treatment solution was calculated individually for each goat to provide a dose equivalent to 20 mg FF/kg bw and 10 mg DOX/kg bw.
Goats of the single group (treated with FF) and goats of the combined group (treated with FF and DOX) were euthanized as previously described at 0.5 (n = 4), 1 (n = 4), 3 (n = 4), 7 (n = 4), 14 (n = 4), and 21 days (n = 4) after the last dose of 20 mg FF/kg bw (single group) and after the last dose of 20 mg FF/kg bw plus 10 mg DOX/kg bw (combined group). Goats were immediately exsanguinated, and tissue specimens of liver, kidney and muscle were collected separately. Each of the tissue specimens was carefully weighed and stored frozen at −20°C until assayed for concentrations of FF and FFA.
The method of FF and FFA pre-processing in the target tissues was as follows: Tissue samples weighing 1.00 ± 0.01 g were placed in a 10 mL centrifuge tube, then 5 mL 2% ammoniated ethyl acetate was added, and the tube was vortexed, sonicated and centrifuged. The above steps were repeated, and the supernatants were pooled and dried under a stream of nitrogen. The residue was reconstituted in 5% acetic acid in water, vortexed and passed through an MCX solid-phase extraction column (the order of the column was methanol, water, sample, 5% acetic acid water and 8% ammoniated ethyl acetate), then the eluate was dried under nitrogen, re-dissolved in 2 mL of degreased n-hexane, passed through a 0.22 μm filter membrane and subjected to LC-MS/MS (AB SCIEX API5000, USA) analysis.
All inter-assay coefficients of variation in each tissue were within 9.93%, the intra-assay coefficients of variation in each tissue were within 11.08%, and the recovery rates in each tissue were between 70.62 and 113.55%. […] For FF and FFA, the LOQ of the analysis was 10 μg/kg, and the LOD of the analysis was 2 μg/kg. The peak times of FFA and FF were 1.80 and 6.05, respectively (Figure 1).

Data set [6] relates to CYP3A24 and its mutants (R105A, R372A, R440A). The data set is described as follows: Protein activity verification of CYP3A24 and its mutants with testosterone. To be noted: TS 1 μmol/L, 60 min. As for the experimental part: Testosterone (TS) is a specific substrate of CYP3A, which can generate 6β-OHTS under the action of CYP3A ([21]). In order to study the protein activity of CYP3A24 and its mutants, we incubated each protein with TS. The experimental steps were as follows: protein (0.5 mg/mL) and NADPH (1 mmol/L) were added to PBS (pH 7.4) for 10 min at 37°C, then TS (Dr. Ehrenstorfer GmbH, Germany, 1 μmol/L) was added to start the reaction. The total reaction volume was 200 μL. At 60 min after drug addition, 200 μL of ice-cold acetonitrile was added to terminate the reaction. After centrifugation at 12,000 g/min for 15 min, the supernatant was filtered through a 0.22 μm membrane and analyzed by LC-MS/MS (AB SCIEX API5000, USA). For TS and 6β-OHTS, chromatographic separation occurred using a Thermo Scientific Hypersil Gold C18 column (150 × 2.1 mm, 5 μm particles), and analytes were detected on an API5000 mass analyser. Mobile phase A was 0.1% formic acid in water, and mobile phase B was methanol. The flow rate was 0.2 mL/min with a linear gradient under the following conditions: 0–0.10 min 5–85% B, 0.10–4.10 min 85% B, 4.10–8.00 min 85–5% B. The injection volume was set to 10 μL.

The mark [7] stands for this setting: goat, 20 mg/kg bw, kidney, read-out: Tissue concentration FF.
Setting [8] is: goat, 20 mg/kg bw, liver, read-out: Tissue concentration FF.
[9] abbreviates: goat, 20 mg/kg bw, muscle, read-out: Tissue concentration FF.

Regarding `C[C@H]1c2cccc(O)c2C(=O)C2=C(O)[C@]3(O)C(=O)C(C(N)=O)=C(O)[C@@H](N(C)C)[C@@H]3[C@@H](O)[C@@H]21` [DOX, α-6-deoxy-5-hydroxytetracycline], the “reduction of FFA production on addition of DOX” value in data set [1] was found to be 17.8%.

`CS(=O)(=O)c1ccc([C@@H](O)[C@@H](CF)NC(=O)C(Cl)Cl)cc1` [FF]: the “reduction of FF metabolism (FFA production) vs CYP3A24” value in data set [2] stood at 32.9%; in data set [4], 65.8%. Further, the results for the “up-regulation of CYP3A24 gene expression compared to control” value in data set [3] (1 day after treatment stopped) and in data set [3] (3 days after treatment stopped) were “about 2.3 fold” and roughly 3 fold, respectively. In addition, the concentration at 3 days after last dose in data set [5] (goat (Capra hircus), 20 mg FF/kg bw, liver, 3 days after last dose) was found to be 936 ± 148 ng/g. The compound also displayed a concentration at 7 days after last dose in data set [5] (goat (Capra hircus), 20 mg FF/kg bw, liver, 7 days after last dose) of 338 ± 126 ng/g. In addition, the concentration at 14 days after last dose in data set [5] (goat (Capra hircus), 20 mg FF/kg bw, liver, 14 days after last dose) was 179 ± 26.5 ng/g. The same compound showed a concentration at 21 days after last dose in data set [5] (goat (Capra hircus), 20 mg FF/kg bw, liver, 21 days after last dose) of 44.5 ± 17.6 ng/g. For the same compound, the concentration at 0.5 days turned out to be 2260 ± 203 ng/g in data set [5] (setting [7]), 2790 ± 257 ng/g in data set [5] (setting [8]) and 1760 ± 201 ng/g in data set [5] (setting [9]). Moreover, the concentration at 1 day in data set [5] (setting [7]) is 1770 ± 142 ng/g; in data set [5] (setting [8]), 2050 ± 310 ng/g; in data set [5] (setting [9]), 858 ± 43.2 ng/g. Moreover, the concentration at 3 days turned out to be 843 ± 124 ng/g in data set [5] (goat, 20 mg/kg bw, kidney, 3 days after last dose, read-out: Tissue concentration FF) and 376 ± 58.1 ng/g in data set [5] (goat, 20 mg/kg bw, muscle, 3 days after last dose, read-out: Tissue concentration FF). Moreover, the concentration at 7 days in data set [5] (goat, 20 mg/kg bw, kidney, 7 days after last dose, read-out: Tissue concentration FF) stood at 327 ± 43.4 ng/g; in data set [5] (goat, 20 mg/kg bw, muscle, 7 days after last dose, read-out: Tissue concentration FF), 162 ± 4.6 ng/g. Moreover, the concentration at 14 days worked out at 131 ± 17.1 ng/g in data set [5] (goat, 20 mg/kg bw, kidney, 14 days after last dose, read-out: Tissue concentration FF) and 48.6 ± 7.6 ng/g in data set [5] (goat, 20 mg/kg bw, muscle, 14 days after last dose, read-out: Tissue concentration FF). The concentration at 21 days in data set [5] (goat, 20 mg/kg bw, kidney, 21 days after last dose, read-out: Tissue concentration FF) is 37.5 ± 8.6 ng/g.

`C[C@]12CC[C@H]3[C@@H](CCC4=CC(=O)CC[C@@]43C)[C@@H]1CC[C@@H]2O` [TS, Testosterone]: in data set [6], the “metabolism of TS into 6β-OHTS” value is on record as “could metabolize TS”.
